Results: patent US7939320B2, “Astaxanthine biosynthesis in eukaryotes” (Peter und Traudl Engelhorn-Stiftung zur Forderung der …, priority 2005, dated 2011)

Key:
[1] = tested on: H. pluvialis phytoene desaturase Leu504Arg mutants; experiment: Resistance to norflurazon of Leu504Arg phytoene desaturase mutants compared with wild type; type: cell-based, Haematococcus pluvialis; settings: mutants with leucine to arginine substitution at position 504 of PDS
Text: The amino acid substitution according to the invention from leucine to arginine at position 504 of the H. pluvialis PDS protein corresponds to the Leu437Arg substitution in Synechococcus PCC7942 (FIG. 2). For this purpose, the Leu codon “CTG” is replaced by the Arg codon “CGC” by directed mutagenesis. This mutation imparts, to the mutants, the highest known resistance factor to norflurazon. The resistance which has been conferred imparts, to the mutants according to the invention, a resistance to norflurazon which is up to 70-fold higher in comparison with the wild type. In accordance with the invention, norflurazon concentrations of […] are used as selection substance.
A portion of the phytoene desaturase 6.1 kilobases in size was isolated from a genomic DNA library of H. pluvialis and subcloned into the multiple cloning site (MCS) of the pBluescriptSK vector (stratagene) via the restriction cleavage sites XbaI and XhoI. A nucleotide substitution from CTG to CGC was carried out via directed mutagenesis with the primers PDS-Qmut-plu2 CCAAGCAGAAGTACCGCGCCTCCATGGAGGG (SEQ ID NO: 8)and PDS-Qmut-min2 CCCTCCATGGAGGCGCGGTACTTCTGCTTGG (SEQ ID NO: 9); the plasmid was named pPDS-Q2. This nucleotide substitution led to an amino acid substitution from leucine to arginine in codon 504 (FIG. 2), and confers to mutants a resistance to norflurazon.

H. pluvialis WT cells = experiment: Growth of H. pluvialis WT cells on OHA plates containing norflurazon; type: cell-based, Haematococcus pluvialis; settings: norflurazon 0.7 μM

CNc1cnn(-c2cccc(C(F)(F)F)c2)c(=O)c1Cl [norflurazon]
resistance to norflurazon, fold higher in comparison with the wild type [1]: up to 70 fold | growth of the WT cells (H. pluvialis WT cells): greatly inhibited
